Experimental data taken from patent US20060167098A1, “Method for the treatment of diseases linked to an accumulation of triglycerides and cholesterol” (Institut National De La Sante ET De LA Recherche Medicale …, priority 2003, published 2006).

What was measured:
[1] = Body fat mass by DEXA in genetically obese ob/ob mice; format: in vivo; settings: 100 mg/kg/day
Description: Six to 8 weeks old male (Crl:CD-1(ICR)BR) Swiss mice, and six to ten weeks old male RjOrl Swiss mice (i.e. lean mice) weighing 28 and 32 grams were purchased from Dépré (Saint Doulchard, France). Ten to 12 weeks old ob/ob male (C57BL/6-ob) mice (i.e. obese mice), weighing 40 to 44 grams were purchased from Janvier (Le-Genest-St-Isle, France). In one experiment, younger ob/ob mice (5-6 weeks old) weighing 25-26 grams were also studied. In genetically obese ob/ob mice, a mutation on the gene of leptin prevents the normal production of this hormone, thus increasing appetite and decreasing energy consumption (Friedman J. M., Halaas J. L., 1998, Nature 395 : 763-770). […] The animals were acclimatized for one to two weeks before the start of experiments.
(§1) D,L-β-Aminoisobutyric acid (BAIBA) was purchased from Sigma-Aldrich. BAIBA has been administered in drinking water at the dose of 100 mg/kg/day or 500 mg/kg/day for 6 weeks, 2 months or 4 months according to the experiments.
The in vivo determination of body fat mass in anesthetized mice has been performed by “DEXA” (Dual Energy X-ray Absorptiometry) (Pietriobelli A., Formica C., Wang Z., Heymsfield S. B., 1996, Am. J. Physiol. 271 (Endocrinol. Metab. 34): E941-E951)). […] It is noteworthy that DEXA also gives for each investigated animal its lean mass that is the total amount of water and proteins (in grams) in the body (excluding the head). Therefore, for a given animal, DEXA allows the determination of the percentage of body fat which is its body fat mass divided by the sum of its body lean and fat masses (fat mass/(lean mass+fat mass)). The “DEXA” apparatus was a Piximus® from Lunar Corporation (Madison, Wis.). Mice were anesthetized thanks to a mixture of xylazine and ketamine.
Procedure 1: the animals were not fasted before DEXA investigations. The first DEXA measurement was performed one day before the beginning of the investigation (T0). Afterwards, DEXA measurements have been respectively performed two weeks (T2) and six weeks (T6) after the beginning of the treatment. […]

[2] = Body fat mass by DEXA in Swiss mice fed with a western diet; format: in vivo
Description: In our investigations, two kinds of diet were used: 1—a standard diet (A04 diet from UAR) containing 3% of lipids and bringing 2900 kcal per kg; 2—a western diet (from UAR too) containing 16% of lipids and bringing 4300 kcal per kg.
as §1
The in vivo determination of body fat mass in anesthetized mice has been performed by “DEXA” (Dual Energy X-ray Absorptiometry) (Pietriobelli A., Formica C., Wang Z., Heymsfield S. B., 1996, Am. J. Physiol. 271 (Endocrinol. Metab. 34): E941-E951)). […] It is noteworthy that DEXA also gives for each investigated animal its lean mass that is the total amount of water and proteins (in grams) in the body (excluding the head). Therefore, for a given animal, DEXA allows the determination of the percentage of body fat which is its body fat mass divided by the sum of its body lean and fat masses (fat mass/(lean mass+fat mass)). The “DEXA” apparatus was a Piximus® from Lunar Corporation (Madison, Wis.). Mice were anesthetized thanks to a mixture of xylazine and ketamine. […]
In a third series of experiments, we sought to determine as to whether of 100 mg/kg/day of β-aminoisobutyric acid (BAIBA) would be able to decrease body fat mass in Swiss mice fed with a western diet (i.e. hypercaloric diet). For this purpose, young (4 weeks old at T0) Swiss mice were fed with a hypercaloric western diet (WD), with or without BAIBA in the drinking water (8 mice in each group). For comparison, the experiment included a group of mice (n=8) fed with a standard diet (SD). DEXA was performed one day before the beginning of the treatment (T0) and then two, four and six weeks after the initiation of the experience (T2, T4 and T6, respectively). This allowed us to determine for each animal the variation of body parameters (e.g. fat mass, body weight) for the different periods of the treatment (T0-T2, T2-T4, T4-T6 and T0-T6). For these four DEXA determinations (T0 to T6), mice were not fasted before measurements. In this experiment, BAIBA reduced the gain of body fat mass in Swiss mice fed with a western diet and this beneficial effect was observed from the fourth week of the BAIBA administration. This effect is illustrated in FIG. 3. […] Indeed, during the T0-T6 period control mice fed with the western diet (Controls-WD) gained 4.88±0.83 grams of body fat whereas mice fed with the same diet and receiving BAIBA (BAIBA-WD) gained 3.91±0.59 grams of body fat mass. For comparison, mice fed with the standard diet (Controls-SD) gained 3.18±0.34 grams of body fat during the entire period (T0-T6) of the experiment. • At the end of the treatment (T6), the body fat mass was 4.48±0.33, 6.21±0.85 and 5.25±0.60 grams, respectively for the Controls-SD, Controls-WD and BAIBA-WD groups of mice (15% decrease between Controls-WD and BAIBA-WD). The percentage of body fat ((fat mass)/(fat+lean mass)) was at this time 13.23±0.86, 17.96±2.04 et 15.76±1.53%, respectively in the Controls-SD, Controls-WD and BAIBA-WD groups.
Finally, we sought to determine on the very same animals as to whether fasting would be able to enhance the beneficial effect of BAIBA on body fat mass. Thus, after the fourth DEXA measurement (i.e. DEXA determination at T6), mice were allowed to recover from the anaesthesia for ca. 2 days and were then submitted to a 48-hour period of fast. A last DEXA measurement was then performed in fasted mice. […] Indeed, after the fasting period, body fat mass was 3.10±0.30, 5.40±0.75 et 4.79±0.56 grams, respectively in control mice fed the standard diet (Controls-SD), control mice fed with the western diet (Controls-WD), and mice fed with the western diet and receiving BAIBA (BAIBA-WD). […]

CC(CN)C(=O)O (racemic) [BAIBA, D,L-β-Aminoisobutyric acid]
gain of body fat ([1]; 10-12 weeks old ob/ob mice, first two weeks): 4.65±0.35 grams
reduction of body fat ([1]; 10-12 weeks old ob/ob mice, first two weeks, not significant): 11%
gain of body fat ([1]; ob/ob mice, T0-T6): 7.30±0.61 grams
gain of body fat mass ([2]; 100 mg/kg/day, western diet, T0-T6): 3.91±0.59 grams
reduction of the gain of body fat mass ([2]; 100 mg/kg/day, western diet, T0-T6, vs Controls-WD): 20%
body fat lost ([2]; 100 mg/kg/day, western diet, T4-T6 period): 0.45±0.30 grams
body weight ([2]; 100 mg/kg/day, western diet, after 6 weeks): 37.0±0.76 grams
percentage of body fat ((fat mass)/(fat+lean mass)) ([2]; 100 mg/kg/day, western diet, at T6): 15.76±1.53%
body fat mass ([2]; 100 mg/kg/day, western diet, at T6, fed): 5.25±0.60 grams
body fat mass ([2]; western diet 6 weeks, after 48-hour fasting period): 4.79±0.56 grams
decrease of the percentage of body fat ([2]; western diet 6 weeks, fasted state): 11%
decrease of the percentage of body fat ([2]; western diet 6 weeks, fed state): 15%
decrease of body fat mass between Controls-WD and BAIBA-WD ([2]; western diet, at T6): 15%
body weight ([2]; western diet, at the end of the fasting period): 33.6±0.9 grams
